Assays:
SHV-5 = target: T1, SHV-5 (Klebsiella pneumoniae, UniProt P0A3M1); test: β-lactamase enzyme inhibition assay, SHV-5 (cefotaxime substrate); type: biochemical
T1 construct: made in house; host or cells: E. coli BL21(DE3)
Outline: (§1)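 Compounds are mixed with purified, untagged recombinant β-lactamase and held 15 min at 37 °C. Substrate is then added: nitrocefin (100 μM final) for OXA-1, imipenem for KPC-2, cefotaxime for SHV-5. Absorbance is followed immediately, and percent inhibition per concentration gives the IC50.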

KPC-2 = target: T2, KPC-2 (Klebsiella pneumoniae, UniProt Q9F663); test: β-lactamase enzyme inhibition assay, KPC-2 (imipenem substrate); type: biochemical; conditions: Class A; imipenem substrate, 300 nm; read-out: KPC-2
T2 construct: made in house; host or cells: E. coli BL21(DE3)
T2 sequence (Q9F663 25-293, looked up): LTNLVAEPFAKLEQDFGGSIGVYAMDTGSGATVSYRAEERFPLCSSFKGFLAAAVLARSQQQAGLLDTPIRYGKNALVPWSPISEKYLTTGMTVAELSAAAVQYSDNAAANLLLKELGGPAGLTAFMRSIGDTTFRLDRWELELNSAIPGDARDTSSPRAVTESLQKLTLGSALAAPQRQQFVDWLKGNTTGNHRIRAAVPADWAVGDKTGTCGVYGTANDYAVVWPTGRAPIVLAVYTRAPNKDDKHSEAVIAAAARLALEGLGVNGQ
Outline: as §1

VIM-2 = target: T3, VIM-2 (Escherichia coli, UniProt Q5U7L7); test: β-lactamase enzyme inhibition assay, VIM-2 (nitrocefin substrate); type: biochemical; conditions: Class B; nitrocefin substrate, 486 nm; read-out: VIM-2
T3 construct: made in house; host or cells: E. coli BL21(DE3)
Outline: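 Metallo-β-lactamase VIM-2 activity was tracked spectrophotometrically at 486 nm with 100 μM nitrocefin over 10 min, following 15 min preincubation with compound at 37 °C; inhibition was calculated per concentration.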

AmpC = target: T4, AmpC (Enterobacter cloacae, UniProt P05364); test: β-lactamase enzyme inhibition assay, p99 AmpC (nitrocefin substrate); type: biochemical
T4 construct: made in house; host or cells: E. coli BL21(DE3)
T4 sequence (P05364 21-381): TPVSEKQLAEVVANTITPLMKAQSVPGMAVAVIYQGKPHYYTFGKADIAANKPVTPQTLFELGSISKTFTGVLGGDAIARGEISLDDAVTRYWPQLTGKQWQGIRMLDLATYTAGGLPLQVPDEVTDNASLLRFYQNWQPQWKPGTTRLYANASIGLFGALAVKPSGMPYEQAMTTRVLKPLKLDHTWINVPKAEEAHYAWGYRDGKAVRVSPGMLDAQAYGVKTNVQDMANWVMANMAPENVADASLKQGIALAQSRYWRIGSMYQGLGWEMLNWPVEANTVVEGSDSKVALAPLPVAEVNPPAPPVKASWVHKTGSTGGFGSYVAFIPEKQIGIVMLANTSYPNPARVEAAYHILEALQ
Outline: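 Compounds are mixed with purified, untagged recombinant β-lactamase and held 15 min at 37 °C. Substrate is then added. Absorbance is followed immediately, and percent inhibition per concentration gives the IC50.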

OXA-48 = OXA-48 (UniProt Q6XEC0); test: β-lactamase enzyme inhibition assay, Class D oxacillinase; type: biochemical; conditions: read-out: OXA-48
[1] = system: E. coli expressing the Class A Extended Spectrum Beta-Lactamase (ESBL) CTX-M-15; test: Broth microdilution MIC assay with ceftazidime, E. coli CTX-M-15; type: cell-based; conditions: Fixed CAZ (ceftazidime) 4 μg/mL; E. coli ESBL4 CTX-M-15
Outline: (§2)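 In cation-adjusted Mueller Hinton broth, bacteria pre-grown 3-5 hours were exposed to test compound (2-fold, 16–0.125 μg/mL) plus a static 4 μg/ml β-lactam. A panel of control β-lactams was run alongside, and the compound MIC was judged by eye following 16-20 hours at 37° C.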

[2] = system: E. cloacae expressing the Class C P99; test: Broth microdilution MIC assay with ceftazidime, E. cloacae P99; type: cell-based; conditions: Fixed CAZ (ceftazidime) 4 μg/mL; E. cl. 144200 p99 AmpC
Outline: as §2

[3] = system: K. pneumoniae expressing the Class A carbapenemase KPC-2; test: Broth microdilution MIC assay with meropenem, K. pneumoniae KPC-2; type: cell-based; conditions: Fixed Mero (meropenem) 4 μg/mL; K. p. 156319 KPC-3
Outline: as §2

[4] = system: P. aeruginosa expressing the Class B carbapenemase VIM-2; test: Broth microdilution MIC assay with meropenem, P. aeruginosa VIM-2; type: cell-based; conditions: Fixed Mero (meropenem) 4 μg/mL; P. aerug. 2775 VIM-2
Outline: as §2

[5] = system: K. pneumoniae expressing the class A carbapenemase KPC-2 and the class B carbapenemase VIM-4; test: Broth microdilution MIC assay with meropenem, K. pneumoniae KPC-2 and VIM-4; type: cell-based; conditions: Fixed Mero (meropenem) 4 μg/mL; K. p. A-1797 KPC-2 VIM-4
Outline: as §2

[6] = system: K. pneumoniae producing the Class D carbapenemase OXA-48; test: Broth microdilution MIC assay with meropenem, K. pneumoniae OXA-48; type: cell-based; conditions: Fixed Mero (meropenem) 4 μg/mL; K. p. 11978 OXA-48
Outline: as §2

T1 sequence (P0A3M1 22-286): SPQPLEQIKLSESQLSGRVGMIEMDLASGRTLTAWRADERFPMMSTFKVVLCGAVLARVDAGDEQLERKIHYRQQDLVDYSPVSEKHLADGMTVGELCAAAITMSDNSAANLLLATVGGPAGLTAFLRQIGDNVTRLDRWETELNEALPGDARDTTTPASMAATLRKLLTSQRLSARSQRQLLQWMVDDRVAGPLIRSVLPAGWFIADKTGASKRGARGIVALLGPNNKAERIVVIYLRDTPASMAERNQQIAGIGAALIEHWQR

Structure (SMILES) | IC50 (SHV-5) [nM] | IC50 (KPC-2) [nM] | IC50 (VIM-2) [nM] | IC50 (AmpC) [nM] | IC50 (OXA-48) [nM] | MIC (μg/mL) of Exemplary Compounds in presence of fixed β-lactams: E. coli ESBL4 CTX-M-15 [1] | MIC (μg/mL) of Exemplary Compounds in presence of fixed β-lactams: E. cl. 144200 p99 AmpC [2] | MIC (μg/mL) of Exemplary Compounds in presence of fixed β-lactams: K. p. 156319 KPC-3 [3] | MIC (μg/mL) of Exemplary Compounds in presence of fixed β-lactams: P. aerug. 2775 VIM-2 [4] | MIC (μg/mL) of Exemplary Compounds in presence of fixed β-lactams: K. p. A-1797 KPC-2 VIM-4 [5] | MIC (μg/mL) of Exemplary Compounds in presence of fixed β-lactams: K. p. 11978 OXA-48 [6]
O=C(Cn1cc([N+](=O)[O-])cn1)N[C@H]1Cc2cccc(C(=O)O)c2OB1O [Example 56, (R)-2-hydroxy-3-(2-(4-nitro-1H-pyrazol-1-yl)acetamido)-3,4-dihydro-2H-benzo[e][1,2]oxaborinine-8-carboxylic acid] | < 100 | < 100 | 100 to 1000 | < 100 | 100 to 1000 | C (C represents an MIC of <1 μg/mL) | C (C represents an MIC of <1 μg/mL) | B (B represents an MIC between 1 and 16 μg/mL inclusive) | B (B represents an MIC between 1 and 16 μg/mL inclusive) | B (B represents an MIC between 1 and 16 μg/mL inclusive) | B (B represents an MIC between 1 and 16 μg/mL inclusive)
O=C(Cn1cc2c(n1)CNC2)N[C@H]1Cc2cccc(C(=O)O)c2OB1O [Example 57, (R)-3-(2-(5,6-dihydropyrrolo[3,4-c]pyrazol-2(4H)-yl)acetamido)-2-hydroxy-3,4-dihydro-2H-benzo[e][1,2]oxaborinine-8-carboxylic acid] | < 100 | < 100 | 100 to 1000 | < 100 | 1000 to 10000 | C (C represents an MIC of <1 μg/mL) | C (C represents an MIC of <1 μg/mL) | C (C represents an MIC of <1 μg/mL) | B (B represents an MIC between 1 and 16 μg/mL inclusive) | B (B represents an MIC between 1 and 16 μg/mL inclusive) | B (B represents an MIC between 1 and 16 μg/mL inclusive)
Nc1cnn(CC(=O)N[C@H]2Cc3cccc(C(=O)O)c3OB2O)c1 [Example 58, (R)-3-(2-(4-amino-1H-pyrazol-1-yl)acetamido)-2-hydroxy-3,4-dihydro-2H-benzo[e][1,2]oxaborinine-8-carboxylic acid] | < 100 | < 100 | 100 to 1000 | < 100 | 100 to 1000 | C (C represents an MIC of <1 μg/mL) | C (C represents an MIC of <1 μg/mL) | B (B represents an MIC between 1 and 16 μg/mL inclusive) | B (B represents an MIC between 1 and 16 μg/mL inclusive) | B (B represents an MIC between 1 and 16 μg/mL inclusive) | B (B represents an MIC between 1 and 16 μg/mL inclusive)
NCCn1cc(C(=O)N[C@H]2Cc3cccc(C(=O)O)c3OB2O)nn1 [Example 59, (R)-3-(1-(2-aminoethyl)-1H-1,2,3-triazole-4-carboxamido)-2-hydroxy-3,4-dihydro-2H-benzo[e][1,2]oxaborinine-8-carboxylic acid] | < 100 | < 100 | < 100 | < 100 | 1000 to 10000 | C (C represents an MIC of <1 μg/mL) | C (C represents an MIC of <1 μg/mL) | B (B represents an MIC between 1 and 16 μg/mL inclusive) | C (C represents an MIC of <1 μg/mL) | B (B represents an MIC between 1 and 16 μg/mL inclusive) | A (A represents an MIC>16 μg/mL)
CC(C)(C(=O)N[C@H]1Cc2cccc(C(=O)O)c2OB1O)n1cc(CNCCN)nn1 [Example 60, (R)-3-(2-(4-(((2-aminoethyl)amino)methyl)-1H-1,2,3-triazol-1-yl)-2-methylpropanamido)-2-hydroxy-3,4-dihydro-2H-benzo[e][1,2]oxaborinine-8-carboxylic acid] | < 100 | 100 to 1000 | < 100 | < 100 | < 100 | B (B represents an MIC between 1 and 16 μg/mL inclusive) | C (C represents an MIC of <1 μg/mL) | B (B represents an MIC between 1 and 16 μg/mL inclusive) | C (C represents an MIC of <1 μg/mL) | C (C represents an MIC of <1 μg/mL) | B (B represents an MIC between 1 and 16 μg/mL inclusive)
NCCONC(=O)c1cn(CC(=O)N[C@H]2Cc3cccc(C(=O)O)c3OB2O)nn1 [Example 61, (R)-3-(2-(4-((2-aminoethoxy)carbamoyl)-1H-1,2,3-triazol-1-yl)acetamido)-2-hydroxy-3,4-dihydro-2H-benzo[e][1,2]oxaborinine-8-carboxylic acid] | < 100 | < 100 | 100 to 1000 | < 100 | 100 to 1000 | C (C represents an MIC of <1 μg/mL) | C (C represents an MIC of <1 μg/mL) | B (B represents an MIC between 1 and 16 μg/mL inclusive) | C (C represents an MIC of <1 μg/mL) | B (B represents an MIC between 1 and 16 μg/mL inclusive) | B (B represents an MIC between 1 and 16 μg/mL inclusive)
Nc1cc(-c2cn(CC(=O)N[C@H]3Cc4cccc(C(=O)O)c4OB3O)nn2)ccn1 [Example 62, (R)-3-(2-(4-(2-aminopyridin-4-yl)-1H-1,2,3-triazol-1-yl)acetamido)-2-hydroxy-3,4-dihydro-2H-benzo[e][1,2]oxaborinine-8-carboxylic acid] | < 100 | < 100 | 100 to 1000 | < 100 | < 100 | C (C represents an MIC of <1 μg/mL) | C (C represents an MIC of <1 μg/mL) | C (C represents an MIC of <1 μg/mL) | B (B represents an MIC between 1 and 16 μg/mL inclusive) | A (A represents an MIC>16 μg/mL) | B (B represents an MIC between 1 and 16 μg/mL inclusive)
NCCSCc1cn(CC(=O)N[C@H]2Cc3cccc(C(=O)O)c3OB2O)nn1 [Example 63, (R)-3-(2-(4-(((2-aminoethyl)thio)methyl)-1H-1,2,3-triazol-1-yl)acetamido)-2-hydroxy-3,4-dihydro-2H-benzo[e][1,2]oxaborinine-8-carboxylic acid] | < 100 | < 100 | 100 to 1000 | < 100 | 100 to 1000 | C (C represents an MIC of <1 μg/mL) | C (C represents an MIC of <1 μg/mL) | C (C represents an MIC of <1 μg/mL) | C (C represents an MIC of <1 μg/mL) | B (B represents an MIC between 1 and 16 μg/mL inclusive) | B (B represents an MIC between 1 and 16 μg/mL inclusive)

From patent US11046716B2, “Beta-lactamase inhibitors” (priority 2015, dated 2021)
